In patent US8697873B2, “Amide substituted imidazopyridines, imidazoquinolines, and imidazonaphthyridines” (3M Innovative Properties Company, priority 2004, dated 2014):
Counter-ions that a name gives are not always drawn.

Compared with `CCOCc1nc2c(N)nc3cccnc3c2n1CCCC(=O)N1CCOCC1` [Example 38, 2-(Ethoxymethyl)-1-(4-morpholin-4-yl-4-oxobutyl)-1H-imidazo[4,5-c][1,5]naphthyridin-4-amine], `CCCc1nc2c(N)nc3cccnc3c2n1CCCC(=O)N1CCOCC1` [Example 37, 1-(4-Morpholin-4-yl-4-oxobutyl)-2-propyl-1H-imidazo[4,5-c][1,5]naphthyridin-4-amine] is higher in melting point: 156 to 157 °C for the first, 196 to 197 °C for the second.

Compared with `CCOCc1nc2c(N)nc(C)c(C)c2n1CCCC(N)=O` [Example 44, 4-[4-Amino-2-(ethoxymethyl)-6,7-dimethyl-1H-imidazo[4,5-c]pyridin-1-yl]butanamide], `CCOCc1nc2c(N)nc3cccnc3c2n1CCCC(N)=O` [Example 39, 4-[4-Amino-2-(ethoxymethyl)-1H-imidazo[4,5-c][1,5]naphthyridin-1-yl]butanamide] is higher in melting point: 199 to 200 °C for the first, 231 to 232 °C for the second.

Compared with `CCCc1nc2c(N)nc3c(c2n1CCCC(=O)N1CCOCC1)CCCC3` [Example 29, 1-(4-Morpholin-4-yl-4-oxobutyl)-2-propyl-6,7,8,9-tetrahydro-1H-imidazo[4,5-c]quinolin-4-amine], `CCCc1nc2c(N)nc3c(c2n1CCCCC(=O)N1CCOCC1)CCCC3` [Example 50, 1-(5-Morpholin-4-yl-5-oxopentyl)-2-propyl-6,7,8,9-tetrahydro-1H-imidazo[4,5-c]quinolin-4-amine] is lower in melting point: 181 to 183 °C for the first, 158 to 160 °C for the second.

First: CCCc1nc2c(N)nc3ccccc3c2n1CCCC(=O)N1CCOCC1 [Example 1, 1-(4-Morpholin-4-yl-4-oxobutyl)-2-propyl-1H-imidazo[4,5-c]quinolin-4-amine]
Second: CCCc1nc2c(N)nc3ccccc3c2n1CCCCC(=O)N1CCOCC1 [Example 34, 1-(5-Morpholin-4-yl-5-oxopentyl)-2-propyl-1H-imidazo[4,5-c]quinolin-4-amine]
The melting point of the first is higher: 200 to 202 °C for the first, 178 to 179 °C for the second.

First: CCCNC(=O)CCCCCn1c(CCC)nc2c(N)nc3ccccc3c21 [Example 7, 6-(4-Amino-2-propyl-1H-imidazo[4,5-c]quinolin-1-yl)-N-propylhexanamide]
Second: CCCNC(=O)CCCn1c(CCC)nc2c(N)nc3ccccc3c21 [Example 2, 4-(4-Amino-2-propyl-1H-imidazo[4,5-c]quinolin-1-yl)-N-propylbutanamide]
The melting point of the first is lower: 139 to 141 °C for the first, 161 to 163 °C for the second.

Compared with `CCOCc1nc2c(N)nc3ccccc3c2n1CCCC(=O)N1CCOCC1` [Example 5, 2-(Ethoxymethyl)-1-(4-morpholin-4-yl-4-oxobutyl)-1H-imidazo[4,5-c]quinolin-4-amine], `CCOCc1nc2c(N)nc3ccccc3c2n1CCCCC(=O)N1CCOCC1` [Example 48, 2-(Ethoxymethyl)-1-(5-morpholin-4-yl-5-oxopentyl)-1H-imidazo[4,5-c]quinolin-4-amine] is lower in melting point: 201 to 203 °C for the first, 128 to 129 °C for the second.

First: CCCc1nc2c(N)nc3cccnc3c2n1CCCCCC(=O)N1CCOCC1 [Example 53, 1-(6-Morpholin-4-yl-6-oxohexyl)-2-propyl-1H-imidazo[4,5-c][1,5]naphthyridin-4-amine]
Second: CCc1nc2c(N)nc3cccnc3c2n1CCCCCC(=O)N1CCOCC1 [Example 55, 2-Ethyl-1-(6-morpholin-4-yl-6-oxohexyl)-1H-imidazo[4,5-c][1,5]naphthyridin-4-amine]
The melting point of the first is lower: 148 to 150 °C for the first, 163 to 165 °C for the second.

`CCOCc1nc2c(N)nc3cccnc3c2n1CCCCCC(N)=O` [Example 58, 6-[4-Amino-2-(ethoxymethyl)-1H-imidazo[4,5-c][1,5]naphthyridin-1-yl]hexanamide] and `CCCc1nc2c(N)nc3cccnc3c2n1CCCCCC(N)=O` [Example 54, 6-(4-Amino-2-propyl-1H-imidazo[4,5-c][1,5]naphthyridin-1-yl)hexanamide] cannot be ordered by melting point: 215 to 217 °C for the first, 216.5 to 217.5 °C for the second.

First: CCCCc1nc2c(N)nc3ccccc3c2n1CCCCC(=O)N1CCOCC1 [Example 46, 2-Butyl-1-(5-morpholin-4-yl-5-oxopentyl)-1H-imidazo[4,5-c]quinolin-4-amine]
Second: COCCc1nc2c(N)nc3ccccc3c2n1CCCCCC(=O)N1CCOCC1 [Example 12, 2-(2-Methoxyethyl)-1-(6-morpholin-4-yl-6-oxohexyl)-1H-imidazo[4,5-c]quinolin-4-amine]
The melting point of the first is higher: 141 to 143 °C for the first, 131 to 132 °C for the second.

First: COCCc1nc2c(N)nc3ccccc3c2n1CCCCC(=O)N1CCOCC1 [Example 36, 2-(2-Methoxyethyl)-1-(5-morpholin-4-yl-5-oxopentyl)-1H-imidazo[4,5-c]quinolin-4-amine]
Second: COCCc1nc2c(N)nc3ccccc3c2n1CCC(=O)N1CCOCC1 [Example 19, 2-(2-Methoxyethyl)-1-(3-morpholin-4-yl-3-oxopropyl)-1H-imidazo[4,5-c]quinolin-4-amine]
The melting point of the first is higher: 128 to 129 °C for the first, 125 to 126 °C for the second.

First: CCOCc1nc2c(N)nc3ccccc3c2n1CCC(=O)N1CCOCC1 [Example 23, 2-(Ethoxymethyl)-1-(3-morpholin-4-yl-3-oxopropyl)-1H-imidazo[4,5-c]quinolin-4-amine]
Second: CCCc1nc2c(N)nc3ccccc3c2n1CCC(=O)N1CCOCC1 [Example 16, 1-(3-Morpholin-4-yl-3-oxopropyl)-2-propyl-1H-imidazo[4,5-c]quinolin-4-amine]
The melting point of the first is higher: 187 to 189 °C for the first, 172 to 173 °C for the second.

Compared with `CCCCc1nc2c(N)nc3ccccc3c2n1CCCCC(N)=O` [Example 52, 5-(4-Amino-2-butyl-1H-imidazo[4,5-c]quinolin-1-yl)pentanamide], `CCCc1nc2c(N)nc3ccccc3c2n1CCC(N)=O` (as salt: hydrochloride) [Example 18, 3-(4-Amino-2-propyl-1H-imidazo[4,5-c]quinolin-1-yl)propanamide hydrochloride] is higher in melting point: 219 to 221 °C for the first, 242 to 243 °C for the second.

First: CCCc1nc2c(N)nc3ccccc3c2n1CCCCCCCCCCCC(=O)NC [Example 25, 12-(4-Amino-2-propyl-1H-imidazo[4,5-c]quinolin-1-yl)-N-methyldodecanamide]
Second: CCCc1nc2c(N)nc3ccccc3c2n1CCC(=O)NC [Example 17, 3-(4-Amino-2-propyl-1H-imidazo[4,5-c]quinolin-1-yl)-N-methylpropanamide]
The melting point of the first is lower: 135 to 137 °C for the first, 177 to 178 °C for the second.

First: CCc1nc2c(N)nc3ccccc3c2n1CC(C)(C)C(N)=O [Example 60, 3-(4-Amino-2-ethyl-1H-imidazo[4,5-c]quinolin-1-yl)-2,2-dimethylpropanamide]
Second: CCOCc1nc2c(N)nc3ccccc3c2n1CC(C)(C)C(N)=O [Example 28, 3-[4-Amino-2-(ethoxymethyl)-1H-imidazo[4,5-c]quinolin-1-yl]-2,2-dimethylpropanamide]
The melting point of the first is higher: 279 to 281 °C for the first, 241 to 243 °C for the second.

First: CCCNC(=O)CCn1c(C)nc2c(N)nc3ccccc3c21 [Example 32, 3-(4-Amino-2-methyl-1H-imidazo[4,5-c]quinolin-1-yl)-N-propylpropanamide]
Second: CCCNC(=O)CCn1cnc2c(N)nc3ccccc3c21 [Example 21, 3-(4-Amino-1H-imidazo[4,5-c]quinolin-1-yl)-N-propylpropanamide]
The melting point of the first is lower: 188 to 189 °C for the first, 212 to 214 °C for the second.

Compared with `CCCc1nc2c(N)nc3ccccc3c2n1CC1(C(N)=O)CCC1` [Example 65, 1-[(4-Amino-2-propyl-1H-imidazo[4,5-c]quinolin-1-yl)methyl]cyclobutanecarboxamide], `CCCc1nc2c(N)nc(C)c(C)c2n1CCCC(=O)N1CCOCC1` [Example 41, 6,7-Dimethyl-1-(4-morpholin-4-yl-4-oxobutyl)-2-propyl-1H-imidazo[4,5-c]pyridin-4-amine] is lower in melting point: 234 to 237 °C for the first, 164 to 165 °C for the second.

`CCCc1nc2c(N)nc3c(c2n1CCCCCC(=O)N1CCOCC1)CCCC3` [Example 30, 1-(6-Morpholin-4-yl-6-oxohexyl)-2-propyl-6,7,8,9-tetrahydro-1H-imidazo[4,5-c]quinolin-4-amine] showed a melting point of 162 to 163 °C.

In the case of `CCCc1nc2c(N)nc3ccccc3c2n1CC(N)=O` [Example 59, 2-(4-Amino-2-propyl-1H-imidazo[4,5-c]quinolin-1-yl)acetamide], the melting point is reported as greater than 300 °C.
With `CCOCc1nc2c(N)nc3ccccc3c2n1CCC(N)=O` [Example 24, 3-[4-Amino-2-(ethoxymethyl)-1H-imidazo[4,5-c]quinolin-1-yl]propanamide] the melting point was greater than 250 °C.
